The term IC50 denotes the concentration needed to halve the response being measured. A word on the Km: it is the concentration of substrate that gives half-maximal velocity. Broadly, the kcat is the maximal rate divided by the concentration of active sites. Broadly, the Ki is the equilibrium dissociation constant of an inhibitor or competing ligand from its target.

These results are taken from PMC6609467 (ChemMedChem, 2019).

Where only a bound is given, the exact number is not on record here.

Test [1] deals with T1, NDM-1 (Klebsiella pneumoniae, UniProt C7C422). Description: Inhibition of NDM-1 catalyzed meropenem hydrolysis. The class given is biochemical.
Test [2] addresses ZnZn-NDM-1 (Klebsiella pneumoniae, UniProt C7C422). Description: Equilibrium dialysis, Zn. The format is binding. As to conditions: for Zn(II) removal from NDM-1 in equilibrium dialysis: NDM-1 8 μM, compound 16 - 128 μM; for Zn(II) removal from NDM-1 at 32 μM compound: Figure S2; for Zn(II) retained by NDM-1 at highest tested concentration: 128 μM compound; for Inhibition mechanism against NDM-1: from equilibrium dialysis and UV-vis of CoCo-NDM-1. On the technique in general: In equilibrium dialysis free small molecules cross a membrane that holds back macromolecules.

In test [3] the target is VIM-2 (Escherichia coli, UniProt Q5U7L7). Nature of the test: Inhibition of VIM-2 catalyzed Fluorocillin hydrolysis. The format is biochemical.
Test [4] has as its target IMP-1 (Serratia marcescens, UniProt P52699). Description: Inhibition of IMP-1 catalyzed Fluorocillin hydrolysis. The class given is biochemical.
Test [5] has as its target T1, NDM-1. Nature of the test: Inhibition of NDM-1 catalyzed Fluorocillin hydrolysis. The class given is biochemical.
The target of test [6] is T1, NDM-1. As to conditions: read-out: KM, NDM-1; Fluorocillin as substrate; ref [28], [43]; cited from earlier work.
Test [7] deals with T1, NDM-1. To be noted: meropenem as substrate of NDM-1.

IMP-1, sequence (P52699 19-246, species assumed): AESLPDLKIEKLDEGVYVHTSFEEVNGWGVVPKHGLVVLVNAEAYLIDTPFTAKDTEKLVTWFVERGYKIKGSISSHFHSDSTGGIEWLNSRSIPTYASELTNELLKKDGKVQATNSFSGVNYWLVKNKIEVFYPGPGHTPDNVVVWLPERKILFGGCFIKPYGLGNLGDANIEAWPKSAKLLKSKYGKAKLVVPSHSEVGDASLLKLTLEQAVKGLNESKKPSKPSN
ZnZn-NDM-1, sequence (C7C422 29-270, looked up): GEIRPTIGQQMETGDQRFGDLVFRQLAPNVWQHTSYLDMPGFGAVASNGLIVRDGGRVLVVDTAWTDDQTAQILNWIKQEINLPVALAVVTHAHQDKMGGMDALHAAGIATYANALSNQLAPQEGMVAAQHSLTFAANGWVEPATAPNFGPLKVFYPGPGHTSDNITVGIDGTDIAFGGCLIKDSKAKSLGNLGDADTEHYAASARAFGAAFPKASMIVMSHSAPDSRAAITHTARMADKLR
T1 sequence (C7C422 29-270 limits assumed): as the sequence (C7C422 29-270, looked up) above

As to `CS(=O)(=O)Nc1cccc(C(=O)O)n1` [Compound 7, 6-(Methylsulfonamido)picolinic acid], the IC50 in test [1] was > 10000 nM.

`O=C(O)c1cc(-c2ccc(Cl)cc2)cc(CP(=O)(O)O)n1` [Compound 18k, 4-(4-Chlorophenyl)-6-(phosphonomethyl)picolinic acid] yielded an IC50 in test [1] of 400 ± 10 nM.

For `O=C(O)c1cccc(-c2ncco2)n1` [Compound 10, 6-(Oxazol-2-yl)picolinic acid], the IC50 in test [1] was > 10000 nM.

The molecule `O=C(O)c1cc(-c2ccccc2Cl)cc(CP(=O)(O)O)n1` [Compound 18m, 4-(2-Chlorophenyl)-6-(phosphonomethyl)picolinic acid] displayed an IC50 in test [1] of 950 ± 50 nM.

For the molecule `O=C(O)Cc1cccc(C(=O)O)n1` [Compound 3, 6-(Carboxymethyl)picolinic acid], the “Zn(II) removal from NDM-1 in equilibrium dialysis” value in test [2] was “removing only small amounts of Zn(II)”. For the same molecule, the IC50 amounted to 7700 ± 600 nM in test [1], 35000 ± 1000 nM in test [3], 59000 ± 5000 nM in test [4] and 2050 ± 90 nM in test [5].

`O=C(O)c1cc(-c2cccc(Cl)c2)cc(CP(=O)(O)O)n1` [Compound 18l, 4-(3-Chlorophenyl)-6-(phosphonomethyl)picolinic acid] came in with a half-inhibitory concentration (IC50) in test [1] of 1290 ± 70 nM.

As to `COc1ccc(-c2cc(CP(=O)(O)O)nc(C(=O)O)c2)cc1` [Compound 18b, 4-(4-Methoxyphenyl)-6-(phosphonomethyl)picolinic acid], in test [2], the “Zn(II) removal from NDM-1 at 32 μM compound” value is reported as “only slight Zn(II) removal”, the “Zn(II) retained by NDM-1 at highest tested concentration” value (shortened to “Zn(II) retained”) is “one equivalent of Zn(II) was retained” and the “Zn(II) removal from NDM-1 in equilibrium dialysis” value was “reduced tendency to remove Zn(II)”. Moreover, the IC50 in test [1] worked out at 200 ± 10 nM.

Regarding `O=C(O)c1cccc(CP(=O)(O)O)n1` [Compound 2, 6-(Phosphonomethyl)picolinic acid], the “Zn(II) retained” value in test [2] was “less than one equivalent was retained”. Moreover, the “Inhibition mechanism against NDM-1” value in test [2] was “primarily via Zn(II) removal”. The IC50 in test [3] stood at 620 ± 10 nM; in test [4] it was 630 ± 10 nM; in test [5], 68 ± 2 nM.

Turning to `O=C(O)c1cccc(-c2nccs2)n1` [Compound 9, 6-(Thiazol-2-yl)picolinic acid], the IC50 in test [1] is > 10000 nM.

As for Fluorocillin, the Km in test [6] was 0.46 µM.

In test [1], `O=C(O)c1cc(-c2ccccc2O)cc(CP(=O)(O)O)n1` [Compound 18g, 4-(2-Hydroxyphenyl)-6-(phosphonomethyl)picolinic acid] displayed an IC50 of 280 ± 10 nM.

With `C[C@H](CS)C(=O)N1CCC[C@H]1C(=O)O` [L-captopril, reference compound], the “Zn(II) removal from NDM-1 in equilibrium dialysis” value in test [2] is given as “did not show any evidence of Zn(II) removal”.

As for `O=C(O)c1cccc(CS(=O)(=O)O)n1` [Compound 5, 6-(Sulfomethyl)picolinic acid], in test [1], the IC50 is > 10000 nM.

As for `O=C(O)c1cccc(P(=O)(O)O)n1` [Compound 1, 6-Phosphonopicolinic acid], the figures for the IC50 in test [3], in test [4] and in test [5] were 850 ± 20 nM, 850 ± 60 nM and 64 ± 1 nM, respectively.

`O=C(O)c1cc(-c2ccc(O)cc2)cc(CP(=O)(O)O)n1` [Compound 18e, 4-(4-Hydroxyphenyl)-6-(phosphonomethyl)picolinic acid]: the IC50 in test [1] worked out at 480 ± 10 nM.

In the case of `COc1ccccc1-c1cc(CP(=O)(O)O)nc(C(=O)O)c1` [Compound 18d, 4-(2-Methoxyphenyl)-6-(phosphonomethyl)picolinic acid], the IC50 in test [1] was found to be 300 ± 10 nM.

Consider `Nc1cccc(-c2cc(CP(=O)(O)O)nc(C(=O)O)c2)c1` [Compound 18i, 4-(3-Aminophenyl)-6-(phosphonomethyl)picolinic acid], for which, in test [2], the “Zn(II) removal from NDM-1 at 32 μM compound” value is reported as “only slight Zn(II) removal”, the “Zn(II) retained” value is recorded as “one equivalent of Zn(II) was retained” and the “Zn(II) removal from NDM-1 in equilibrium dialysis” value was “reduced tendency to remove Zn(II)”. This molecule showed an IC50 in test [1] of 400 ± 20 nM.

In test [1], `O=C(O)c1cc(-c2ccccc2)cc(CP(=O)(O)O)n1` [Compound 18a, 4-Phenyl-6-(phosphonomethyl)picolinic acid] yielded an IC50 of 410 ± 20 nM.

Consider `Nc1ccccc1-c1cc(CP(=O)(O)O)nc(C(=O)O)c1` [Compound 18j, 4-(2-Aminophenyl)-6-(phosphonomethyl)picolinic acid], for which the IC50 in test [1] came out at 240 ± 10 nM.

Turning to `C[C@@H](O)[C@H]1C(=O)N2C(C(=O)O)=C(S[C@@H]3CN[C@H](C(=O)N(C)C)C3)[C@H](C)[C@H]12` [Meropenem, meropenem], the kcat in test [7] was 15.3 ± 0.4 s⁻¹.

As to `CN(Cc1cccc(C(=O)O)n1)S(C)(=O)=O` [Compound 8, 6-((N-Methylmethylsulfonamido)methyl)picolinic acid], the concentration for half-maximal inhibition (IC50) in test [1] was > 10000 nM.

As to `O=C(O)c1cccc(C(=O)O)n1` [DPA, dipicolinic acid, reference compound], the “Zn(II) removal from NDM-1 in equilibrium dialysis” value in test [2] was “significantly reduced”. For the same molecule, the IC50 in test [3] is 2340 ± 40 nM; in test [5], 330 ± 40 nM.

Regarding `COc1cccc(-c2cc(CP(=O)(O)O)nc(C(=O)O)c2)c1` [Compound 18c, 4-(3-Methoxyphenyl)-6-(phosphonomethyl)picolinic acid], 420 ± 20 nM corresponded to half-maximal inhibition in test [1] (IC50).

On to `O=C(O)c1cc(-c2cccc(O)c2)cc(CP(=O)(O)O)n1` [Compound 18f, 4-(3-Hydroxyphenyl)-6-(phosphonomethyl)picolinic acid], for which, in test [1], inhibition was half-maximal at 280 ± 10 nM (IC50).

The molecule `Nc1ccc(-c2cc(CP(=O)(O)O)nc(C(=O)O)c2)cc1` [Compound 18h, 4-(4-Aminophenyl)-6-(phosphonomethyl)picolinic acid] returned an IC50 in test [1] of 300 ± 10 nM.

Take `O=C(O)c1cccc(-c2nnn[nH]2)n1` [Compound 4, 6-(1H-Tetrazol-5-yl)picolinic acid]: the “Zn(II) removal from NDM-1 in equilibrium dialysis” value in test [2] is reported as “removing only small amounts of Zn(II)”. Further, the “Inhibition mechanism against NDM-1” value in test [2] is on record as “mainly via formation of a ternary complex”. For the same molecule, the IC50 in test [1] turned out to be 7000 ± 500 nM; in test [3], 27000 ± 2000 nM; in test [4], 22000 ± 1000 nM; in test [5], 2190 ± 130 nM. Further, in test [1], the affinity, expressed as Ki, was 2200 ± 500 nM.

In the case of `CS(=O)(=O)Cc1cccc(C(=O)O)n1` [Compound 6, 6-((Methylsulfonyl)methyl)picolinic acid], the IC50 in test [1] is > 10000 nM.
